Measurements from ChEMBL document CHEMBL1949670, “Probes for narcotic receptor mediated phenomena. 44. Synthesis of an N-substituted 4-hydroxy-5-(3-hydroxyphenyl)morphan with high affinity and selective μ-antagonist activity” (Eur J Med Chem, 2012).

Experiments:
[1] = target: Mu-type opioid receptor (Homo sapiens) (UniProt P35372); details: CHO
Description: Antagonist activity at human mu receptor expressed in CHO cells membrane assessed as inhibition of DAMGO-induced [35S]GTPgammaS binding after 3 hrs by liquid scintillation counting

Mus musculus = experiment: Antinociceptive activity in sc dosed mouse; type: functional

Sequence of Mu-type opioid receptor (Homo sapiens) (P35372 whole entry): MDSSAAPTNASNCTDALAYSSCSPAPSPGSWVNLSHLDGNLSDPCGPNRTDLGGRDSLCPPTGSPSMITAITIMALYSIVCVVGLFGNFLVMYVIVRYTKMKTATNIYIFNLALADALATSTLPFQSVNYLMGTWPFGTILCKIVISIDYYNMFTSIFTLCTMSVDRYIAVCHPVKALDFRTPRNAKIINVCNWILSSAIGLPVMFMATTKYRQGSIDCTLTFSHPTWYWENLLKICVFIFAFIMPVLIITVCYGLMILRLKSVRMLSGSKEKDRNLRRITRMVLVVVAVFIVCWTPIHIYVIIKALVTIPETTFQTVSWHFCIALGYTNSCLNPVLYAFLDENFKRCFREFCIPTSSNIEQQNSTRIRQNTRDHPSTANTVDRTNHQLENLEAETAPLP

SMILES	Ke [1]	ED50 (Mus musculus)	ED50 [1]
Oc1cccc([C@@]23CCC[C@@H](C2)N(CCc2ccccc2)C[C@H]3O)c1 (racemic)	12 nM		
CN1CC[C@]23c4c5ccc(O)c4O[C@H]2[C@@H](O)C=C[C@@]3(O)[C@H]1C5		2.9 mg/kg	
CN1CC[C@]23c4c5ccc(O)c4O[C@H]2[C@@H](O)CC[C@@]3(O)[C@H]1C5 [HYDROMORPHINOL]		1.1 mg/kg	
CN1CC2(OCCO2)[C@]2(c3cccc(O)c3)CCC[C@H]1C2 (racemic)	154 nM		89 nM
CN1CC[C@]23c4c5ccc(O)c4O[C@H]2[C@@H](O)CC[C@H]3[C@H]1C5 [DIHYDROMORPHINE]		1.8 mg/kg	
